Data taken from paper PMC11012124, “Synthesis of Novel Triazine-Based Chalcones and 8,9-dihydro-7H-pyrimido[4,5-b][1,4]diazepines as Potential Leads in the Search of Anticancer, Antibacterial and Antifungal Agents” (International Journal of Molecular Sciences, 2024).

Legend:
SNB-19 = test: cells; settings: Homo sapiens, SNB-19, 48 h
HOP-92 = test: cells; settings: Homo sapiens, HOP-92, 48 h
HOP-62 = test: cells; settings: Homo sapiens, HOP-62, 48 h
PC-3 = test: cells; settings: Homo sapiens, PC-3, 48 h
U251 = test: cells; settings: Homo sapiens, U-251, 48 h
HS 578T = test: cells; settings: Homo sapiens, 48 h
UO-31 = test: cells; settings: Homo sapiens, UO-31, 48 h
HCC-2998 = test: cells; settings: Homo sapiens, HCC 2998, 48 h
A549/ATCC = test: cells; settings: Homo sapiens, A549, 48 h
OVCAR-3 = test: cells; settings: Homo sapiens, OVCAR-3, 48 h
SNB-75 = test: cells; settings: Homo sapiens, SNB-75, 48 h
NCI-H226 = test: cells; settings: Homo sapiens, NCI-H226, 48 h
NCI-H23 = test: cells; settings: Homo sapiens, NCI-H23, 48 h
EKVX = test: cells; settings: Homo sapiens, 48 h
MOLT-4 = test: cells; settings: Homo sapiens, MOLT-4, 48 h
UACC-257 = test: cells; settings: Homo sapiens, UACC-257, 48 h
A498 = test: cells; settings: Homo sapiens, A498, 48 h
M14 = test: cells; settings: Homo sapiens, M14, 48 h
HCT-116 = test: cells; settings: Homo sapiens, HCT-116, 48 h
ACHN = test: cells; settings: Homo sapiens, 48 h
60 cancer cell lines = test: NCI-60 one-dose screen (10 μM); type: cell-based; settings: Homo sapiens; one dose of 10 μM, mean over 60 cancer cell lines; read-out: Mean Growth Percent (MGP)
Text: Additionally, the mean of the growth percentages (MGP) of each compound against all the 60 cancer cell lines is also reported, which is used as one of the selection criteria to continue with tests at five concentration doses.

BT-549 = test: cells; settings: Homo sapiens, BT-549, 48 h
SF-295 = test: cells; settings: Homo sapiens, SF-295, 48 h
LOX IMVI = test: cells; settings: Homo sapiens, 48 h
RPMI-8226 = test: cells; settings: Homo sapiens, RPMI-8226, 48 h
MDA-MB-231/ATCC = test: cells; settings: Homo sapiens, MDA-MB-231, 48 h
UACC-62 = test: cells; settings: Homo sapiens, UACC-62, 48 h
MDA-MB-468 = test: cells; settings: Homo sapiens, MDA-MB-468, 48 h
SK-MEL-5 = test: cells; settings: Homo sapiens, SK-MEL-5, 48 h
HCT-15 = test: cells; settings: Homo sapiens, HCT-15, 48 h
786-0 = test: cells; settings: Homo sapiens, 786-0, 48 h
NCI-H322M = test: cells; settings: Homo sapiens, 48 h
HT29 = test: cells; settings: Homo sapiens, HT-29, 48 h
SF-268 = test: cells; settings: Homo sapiens, SF-268, 48 h
RXF 393 = test: cells; settings: Homo sapiens, RXF 393, 48 h
COLO 205 = test: cells; settings: Homo sapiens, COLO 205, 48 h
SF-539 = test: cells; settings: Homo sapiens, SF-539, 48 h

Question: `COc1cc(/C=C/C(=O)c2ccc(S(=O)(=O)NCCNc3nc(N(C)C)nc(N4CCOCC4)n3)cc2)cc(OC)c1OC` [23d] was tested. Which GI50 (SNB-19) did it give?
Answer: Its GI50 is 4.28 µM.

Question: And the CC50 (SNB-19; read-out: LC50)?
Answer: Its CC50 is 41.7 µM.

Question: What about the GI50 (HOP-92) of the same molecule?
Answer: The GI50 was 7.27 µM.

Question: What about the CC50 (HOP-92; read-out: LC50) of the same molecule?
Answer: The CC50 was 76 µM.

Question: What about the GI50 (HOP-62) of the same molecule?
Answer: The GI50 was 2.66 µM.

Question: And the CC50 (HOP-62; read-out: LC50)?
Answer: Its CC50 is 32.1 µM.

Question: What about the GI50 (PC-3) of the same molecule?
Answer: Its GI50 is 3.76 µM.

Question: What about the CC50 (PC-3; read-out: LC50) of the same molecule?
Answer: Its CC50 is greater than 100 µM.

Question: And the GI50 (U251; U251, 48 h)?
Answer: Its GI50 is 1.54 µM.

Question: And the CC50 (U251; read-out: LC50)?
Answer: Its CC50 is 5.54 µM.

Question: And the GI50 (HS 578T)?
Answer: The GI50 was 2.29 µM.

Question: And the CC50 (HS 578T; read-out: LC50)?
Answer: Its CC50 is greater than 100 µM.

Question: And the GI50 (UO-31)?
Answer: The GI50 was 1.57 µM.

Question: What about the CC50 (UO-31; read-out: LC50) of the same molecule?
Answer: The CC50 was 6.32 µM.

Question: And the GI50 (HCC-2998)?
Answer: The GI50 was 1.8 µM.

Question: What about the CC50 (HCC-2998; read-out: LC50) of the same molecule?
Answer: Its CC50 is 5.9 µM.

Question: And the GI50 (A549/ATCC)?
Answer: Its GI50 is 3.55 µM.

Question: What about the CC50 (A549/ATCC; read-out: LC50) of the same molecule?
Answer: Its CC50 is 43.9 µM.

Question: What about the GI50 (OVCAR-3) of the same molecule?
Answer: The GI50 was 2.02 µM.

Question: And the CC50 (OVCAR-3; read-out: LC50)?
Answer: Its CC50 is 8.84 µM.

Question: What about the GI50 (SNB-75) of the same molecule?
Answer: Its GI50 is 1.56 µM.

Question: What about the CC50 (SNB-75; read-out: LC50) of the same molecule?
Answer: Its CC50 is 41.6 µM.

Question: And the GI50 (NCI-H226)?
Answer: The GI50 was 11.4 µM.

Question: And the CC50 (NCI-H226; read-out: LC50)?
Answer: The CC50 was 72.4 µM.

Question: And the GI50 (NCI-H23)?
Answer: The GI50 was 3.09 µM.

Question: And the CC50 (NCI-H23; read-out: LC50)?
Answer: The CC50 was 40.3 µM.

Question: And the GI50 (EKVX)?
Answer: Its GI50 is 3.74 µM.

Question: And the CC50 (EKVX; read-out: LC50)?
Answer: Its CC50 is 82.3 µM.

Question: And the GI50 (MOLT-4)?
Answer: The GI50 was 2.23 µM.

Question: What about the CC50 (MOLT-4; read-out: LC50) of the same molecule?
Answer: The CC50 was greater than 100 µM.

Question: What about the GI50 (UACC-257) of the same molecule?
Answer: Its GI50 is 5.86 µM.

Question: And the CC50 (UACC-257; read-out: LC50)?
Answer: Its CC50 is 43 µM.

Question: And the GI50 (A498)?
Answer: The GI50 was 14.2 µM.

Question: And the CC50 (A498; read-out: LC50)?
Answer: The CC50 was 52.6 µM.

Question: And the GI50 (M14)?
Answer: The GI50 was 2.18 µM.

Question: And the CC50 (M14; read-out: LC50)?
Answer: The CC50 was 26.9 µM.

Question: What about the GI50 (HCT-116) of the same molecule?
Answer: The GI50 was 1.56 µM.

Question: What about the CC50 (HCT-116; read-out: LC50) of the same molecule?
Answer: The CC50 was 5.92 µM.

Question: And the GI50 (ACHN)?
Answer: The GI50 was 1.78 µM.

Question: What about the CC50 (ACHN; read-out: LC50) of the same molecule?
Answer: Its CC50 is 6.75 µM.

Question: And the activity at 10 µM (60 cancer cell lines)?
Answer: Its activity at 10 µM is -32.7%.

Question: What about the GI50 (BT-549) of the same molecule?
Answer: The GI50 was 2.01 µM.

Question: And the CC50 (BT-549; read-out: LC50)?
Answer: Its CC50 is 6.91 µM.

Question: What about the GI50 (SF-295) of the same molecule?
Answer: The GI50 was 3.04 µM.

Question: What about the CC50 (SF-295; read-out: LC50) of the same molecule?
Answer: Its CC50 is 57.8 µM.

Question: What about the GI50 (LOX IMVI) of the same molecule?
Answer: The GI50 was 1.64 µM.

Question: What about the CC50 (LOX IMVI; read-out: LC50, LOX IMVI, 48 h) of the same molecule?
Answer: The CC50 was 5.76 µM.

Question: What about the GI50 (RPMI-8226) of the same molecule?
Answer: Its GI50 is 1.39 µM.

Question: What about the CC50 (RPMI-8226; read-out: LC50) of the same molecule?
Answer: The CC50 was greater than 100 µM.

Question: And the GI50 (MDA-MB-231/ATCC)?
Answer: Its GI50 is 2.9 µM.

Question: And the CC50 (MDA-MB-231/ATCC; read-out: LC50)?
Answer: The CC50 was 36.7 µM.

Question: What about the GI50 (UACC-62) of the same molecule?
Answer: Its GI50 is 2.14 µM.

Question: What about the CC50 (UACC-62; read-out: LC50) of the same molecule?
Answer: The CC50 was 22.8 µM.

Question: What about the GI50 (MDA-MB-468) of the same molecule?
Answer: The GI50 was 1.69 µM.

Question: What about the CC50 (MDA-MB-468; read-out: LC50) of the same molecule?
Answer: The CC50 was 6.66 µM.

Question: What about the GI50 (SK-MEL-5) of the same molecule?
Answer: Its GI50 is 7.9 µM.

Question: And the CC50 (SK-MEL-5; read-out: LC50)?
Answer: The CC50 was 46.6 µM.

Question: And the GI50 (HCT-15)?
Answer: The GI50 was 1.82 µM.

Question: What about the CC50 (HCT-15; read-out: LC50) of the same molecule?
Answer: Its CC50 is 8.38 µM.

Question: What about the GI50 (786-0) of the same molecule?
Answer: The GI50 was 1.89 µM.

Question: And the CC50 (786-0; read-out: LC50)?
Answer: The CC50 was 7.18 µM.

Question: And the GI50 (NCI-H322M)?
Answer: The GI50 was 7.82 µM.

Question: What about the CC50 (NCI-H322M; read-out: LC50) of the same molecule?
Answer: The CC50 was 48.5 µM.

Question: What about the GI50 (HT29) of the same molecule?
Answer: Its GI50 is 1.72 µM.

Question: What about the CC50 (HT29; read-out: LC50) of the same molecule?
Answer: The CC50 was 5.93 µM.

Question: And the GI50 (SF-268)?
Answer: The GI50 was 3.16 µM.

Question: What about the CC50 (SF-268; read-out: LC50) of the same molecule?
Answer: Its CC50 is 77.2 µM.

Question: What about the GI50 (RXF 393) of the same molecule?
Answer: Its GI50 is 1.22 µM.

Question: And the CC50 (RXF 393; read-out: LC50)?
Answer: The CC50 was 8.63 µM.

Question: What about the GI50 (COLO 205) of the same molecule?
Answer: The GI50 was 2.14 µM.

Question: What about the CC50 (COLO 205; read-out: LC50) of the same molecule?
Answer: The CC50 was 16.6 µM.

Question: What about the GI50 (SF-539) of the same molecule?
Answer: The GI50 was 1.81 µM.

Question: And the CC50 (SF-539; read-out: LC50, SF-539, 48 h)?
Answer: Its CC50 is 6.29 µM.
